In US6417167B1, “Lyophilized compositions containing shingoglycolipid and process for preparing them” (Kirin Beer Kabushiki Kaisha, priority 1997, dated 2002):

Key:
Type in all cases: physicochemical
[1] = Examination of optimal formulation: re-solubility after storage; conditions: lyophilized, Polysorbate 20 0.5%
Protocol: (§1) First, Polysorbate 20 was dissolved in distilled water in a concentration of 0.5%, and sucrose and histidine or sodium deoxycholate in such concentrations listed on Table 11. Next, 20 mg of the active component (KRN7000) was weighed and stirred in 100 ml of the solvents in a heated bath to 80° C. for 20 minutes in order to form a solution. After cooling with running water, the mixture was filtered through a 0.22 μm filter, and transparent colorless glass vials having a volume of 5 ml were charged with a 1 ml portion of each of a variety of solutions thus obtained and subjected to lyophilization. Lyophilization was carried out under the condition of preliminary freezing at −40° C. for 2 hours and drying at −20° C. for 24 hours, 10° C. for 12 hours, and finally at 25° C. for 5 hours to give the lyophilized product. The degree of vacuum was set at 0.1 Torr or less during drying step.
After the lyophilization step, the lyophilized composition thus obtained was stored at 25° C. or 50° C. After storage at 25° C. for 2 months or at 50° C. for 2 weeks, the lyophilized composition was reconstituted in 1 ml of distilled water for injection, left standing for 30 minutes, and solubility was judged when the foams generated on reconstitution disappeared. The samples judged to be solution after storage at 25° C. for 2 months were further stored, and judged again of their solubility after storage for 4 months.
(§2) The solubility was judged by cleaning the outside of the vial and placing it beneath the white light source in a darkroom for observation with naked eye at the position of a luminous intensity of about 5,000 lux. When the sample was clear with no precipitates, it was judged that the active component was dissolved.

[2] = Additives for improving re-solubility during storage, sucrose as excipient; conditions: lyophilized, Polysorbate 20 0.5%, Sucrose 9.6%
Protocol: as §1, with “and a variety of additives” for “and histidine or sodium deoxycholate in”, “concentrations as” for “concentrations”, “listed in” for “listed on”, “Table 9.” for “Table 11.”
After the lyophilization step, the lyophilized composition thus obtained was stored at 25° C. or 50° C. , or at both of these temperatures. After storage at 25° C. for 1 month or at 50° C. for 3 days, the lyophilized composition was reconstituted in 1 ml of distilled water for injection, left standing for 30 minutes, and solubility was judged when the foams generated on reconstitution disappeared. The samples judged in solution were further stored, and judged again of their solubility after storage at 25° C. for 4 months or at 50° C. for 2 weeks.
as §2

[3] = Addition effects of sodium deoxycholate and histidine in the absence of a sugar; conditions: lyophilized, Polysorbate 20 0.5%, no sugar, 1%, 50° C.
Protocol: Addition effects of sodium deoxycholate and histidine in the absence of a sugar as the excipient was examined.
as §1, with “and” for “and sucrose and”, “a concentration of 1.0%.” for “such concentrations listed on Table 11.”
After the lyophilization step, the lyophilized composition thus obtained was stored at 50° C. After storage for 3 days or 2 weeks, the lyophilized composition was reconstituted in 1 ml of distilled water for injection, left standing for 30 minutes, and solubility was judged when the foams generated on reconstitution disappeared. […]

In the case of `CCCCCCCCCCCCCCCCCCCCCCCCCC(=O)N[C@@H](CO[C@H]1O[C@H](CO)[C@H](O)[C@H](O)[C@H]1O)[C@H](O)[C@H](O)CCCCCCCCCCCCCC` [KRN7000, (2S,3S,4R)-1-(α-D-galactopyranosyloxy)-2-hexacosanoylamino-3,4-octadecanediol], the “Re-solubility after storage (by naked eye)” value (shortened to “Re-solubility after storage”) ([1]; Sucrose 1.1%, Histidine, 4%, 50° C., 2 weeks) is reported as “+ (not dissolved (or deposited))”, the “Re-solubility after storage” value ([1]; Sucrose 3.1%, Histidine, 3%, 50° C., 2 weeks) is reported as “− (dissolved)” and the “Re-solubility after storage” value ([1]; Sucrose 3.2%, Histidine, 2%, 50° C., 2 weeks) is reported as “− (dissolved)”. For the same compound, the “Re-solubility after storage” value ([1]; Sucrose 4.8%, Sodium deoxycholate, 0.2%, 25° C., 2 months) was “+ (not dissolved (or deposited))”, the “Re-solubility after storage” value ([1]; Sucrose 4.8%, Sodium deoxycholate, 0.5%, 25° C., 2 months) was “− (dissolved)” and the “Re-solubility after storage” value ([1]; Sucrose 4.8%, Sodium deoxycholate, 0.5%, 25° C., 4 months) was “− (dissolved)”. For the same compound, the “Re-solubility after storage” value ([1]; Sucrose 4.8%, Sodium deoxycholate, 1%, 25° C., 2 months) was “− (dissolved)”, the “Re-solubility after storage” value ([1]; Sucrose 4.8%, Sodium deoxycholate, 1%, 25° C., 4 months) was “− (dissolved)” and the “Re-solubility after storage” value ([1]; Sucrose 4.8%, Sodium deoxycholate, 2%, 25° C., 2 months) was “− (dissolved)”. The “Re-solubility after storage” value ([1]; Sucrose 4.8%, Sodium deoxycholate, 2%, 25° C., 4 months) was “− (dissolved)”, the “Re-solubility after storage” value ([1]; Sucrose 5.0%, Histidine, 2%, 50° C., 2 weeks) was “− (dissolved)” and the “Re-solubility after storage” value ([1]; Sucrose 5.1%, Histidine, 1%, 50° C., 2 weeks) was “− (dissolved)”. For the same compound, the “Re-solubility after storage” value ([1]; Sucrose 6.9%, Histidine, 1%, 50° C., 2 weeks) was “− (dissolved)”, the “Re-solubility after storage” value ([1]; Sucrose 7.9%, Histidine, 0.5%, 50° C., 2 weeks) was “+ (not dissolved (or deposited))” and the “Re-solubility after storage” value ([1]; Sucrose 9.6%, Histidine, 2%, 50° C., 2 weeks) was “− (dissolved)”. For the same compound, the “Re-solubility after storage” value ([1]; Sucrose 9.6%, Sodium deoxycholate, 0.2%, 25° C., 2 months) was “+ (not dissolved (or deposited))”, the “Re-solubility after storage” value ([1]; Sucrose 9.6%, Sodium deoxycholate, 0.5%, 25° C., 2 months) was “− (dissolved)” and the “Re-solubility after storage” value ([1]; Sucrose 9.6%, Sodium deoxycholate, 0.5%, 25° C., 4 months) was “− (dissolved)”. The “Re-solubility after storage” value ([1]; Sucrose 9.6%, Sodium deoxycholate, 1%, 25° C., 2 months) was “− (dissolved)”, the “Re-solubility after storage” value ([1]; Sucrose 9.6%, Sodium deoxycholate, 1%, 25° C., 4 months) was “− (dissolved)” and the “Re-solubility after storage” value ([1]; Sucrose 9.6%, Sodium deoxycholate, 2%, 25° C., 2 months) was “− (dissolved)”. The “Re-solubility after storage” value ([1]; Sucrose 9.6%, Sodium deoxycholate, 2%, 25° C., 4 months) was “− (dissolved)”, the “Re-solubility after storage” value ([1]; Sucrose 19.2%, Sodium deoxycholate, 0.1%, 25° C., 2 months) was “+ (not dissolved (or deposited))” and the “Re-solubility after storage” value ([1]; Sucrose 19.2%, Sodium deoxycholate, 0.2%, 25° C., 2 months) was “+ (not dissolved (or deposited))”. For the same compound, the “Re-solubility after storage” value ([1]; Sucrose 19.2%, Sodium deoxycholate, 0.5%, 25° C., 2 months) was “+ (not dissolved (or deposited))”, the “Re-solubility after storage” value ([1]; Sucrose 19.2%, Sodium deoxycholate, 1%, 25° C., 2 months) was “+ (not dissolved (or deposited))” and the “Re-solubility after storage” value ([1]; Sucrose 19.2%, Sodium deoxycholate, 2%, 25° C., 2 months) was “+ (not dissolved (or deposited))”. For the same compound, the “Re-solubility after storage” value ([2]; Arginine, 0.1%, 50° C., 3 days) was “+ (not dissolved (or deposited))”, the “Re-solubility after storage” value ([2]; Glycerol, 1%, 25° C., 1 month) was “+ (not dissolved (or deposited))” and the “Re-solubility after storage” value ([2]; Glycine, 0.1%, 50° C., 3 days) was “+ (not dissolved (or deposited))”. The “Re-solubility after storage” value ([2]; Glycine, 1%, 50° C., 3 days) was “+ (not dissolved (or deposited))”, the “Re-solubility after storage” value ([2]; Histidine, 2%, 50° C., 2 weeks) was “− (dissolved)” and the “Re-solubility after storage” value ([2]; Histidine, 2%, 50° C., 3 days) was “− (dissolved)”. The “Re-solubility after storage” value ([2]; Pluronic F68, 0.1%, 25° C., 1 month) was “− (dissolved)”, the “Re-solubility after storage” value ([2]; Pluronic F68, 0.1%, 25° C., 4 month) was “+ (not dissolved (or deposited))” and the “Re-solubility after storage” value ([2]; Pluronic F68, 1%, 25° C., 1 month) was “− (dissolved)”. The “Re-solubility after storage” value ([2]; Pluronic F68, 1%, 25° C., 4 month) was “+ (not dissolved (or deposited))”, the “Re-solubility after storage” value ([2]; Propylene glycol, 1%, 25° C., 1 month) was “+ (not dissolved (or deposited))” and the “Re-solubility after storage” value ([2]; Sodium deoxycholate, 0.1%, 25° C., 1 month) was “− (dissolved)”. The “Re-solubility after storage” value ([2]; Sodium deoxycholate, 0.1%, 25° C., 4 month) was “+ (not dissolved (or deposited))”, the “Re-solubility after storage” value ([2]; Sodium deoxycholate, 1%, 25° C., 1 month) was “− (dissolved)” and the “Re-solubility after storage” value ([2]; Sodium deoxycholate, 1%, 25° C., 4 month) was “− (dissolved)”. The “Re-solubility after storage” value ([2]; Sodium deoxycholate, 1%, 50° C., 2 weeks) was “− (dissolved)”, the “Re-solubility after storage” value ([2]; Sodium deoxycholate, 1%, 50° C., 3 days) was “− (dissolved)” and the “Re-solubility after storage” value ([2]; no additive, 25° C., 1 month) was “− (dissolved)”. For the same compound, the “Re-solubility after storage” value ([2]; no additive, 25° C., 4 month) was “+ (not dissolved (or deposited))”, the “Re-solubility after storage” value ([2]; no additive, 50° C., 3 days) was “+ (not dissolved (or deposited))” and the “Re-solubility after storage” value ([3]; Histidine, 2 weeks) was “+ (not dissolved (or deposited))”. The “Re-solubility after storage” value ([3]; Sodium deoxycholate, 3 days) was “+ (not dissolved (or deposited))”.
